Entries after “also recorded” stand apart in the source; their conditions may differ.
Tests used:
[1] = molecular target: T1, SERCA2 (Homo sapiens, UniProt P16615); assay: NADH-coupled ATPase assay on microsomal membrane vesicles from HEK-293T cells (HEK-293 ER); format: biochemical; details: for SERCA2a HEK ER effect class: 10 μM (1 μM for 12b per Figure S7), microsomal membrane vesicles; for SERCA2 ATPase activity in HEK-293 ER microsomes (in words): 10 μM, vs 0.1 v/v% DMSO
T1 construct: endogenous in cells; host or cells: HEK-293T cells, microsomal membrane vesicles (HEK-293 ER)
T1 sequence (P16615 whole entry): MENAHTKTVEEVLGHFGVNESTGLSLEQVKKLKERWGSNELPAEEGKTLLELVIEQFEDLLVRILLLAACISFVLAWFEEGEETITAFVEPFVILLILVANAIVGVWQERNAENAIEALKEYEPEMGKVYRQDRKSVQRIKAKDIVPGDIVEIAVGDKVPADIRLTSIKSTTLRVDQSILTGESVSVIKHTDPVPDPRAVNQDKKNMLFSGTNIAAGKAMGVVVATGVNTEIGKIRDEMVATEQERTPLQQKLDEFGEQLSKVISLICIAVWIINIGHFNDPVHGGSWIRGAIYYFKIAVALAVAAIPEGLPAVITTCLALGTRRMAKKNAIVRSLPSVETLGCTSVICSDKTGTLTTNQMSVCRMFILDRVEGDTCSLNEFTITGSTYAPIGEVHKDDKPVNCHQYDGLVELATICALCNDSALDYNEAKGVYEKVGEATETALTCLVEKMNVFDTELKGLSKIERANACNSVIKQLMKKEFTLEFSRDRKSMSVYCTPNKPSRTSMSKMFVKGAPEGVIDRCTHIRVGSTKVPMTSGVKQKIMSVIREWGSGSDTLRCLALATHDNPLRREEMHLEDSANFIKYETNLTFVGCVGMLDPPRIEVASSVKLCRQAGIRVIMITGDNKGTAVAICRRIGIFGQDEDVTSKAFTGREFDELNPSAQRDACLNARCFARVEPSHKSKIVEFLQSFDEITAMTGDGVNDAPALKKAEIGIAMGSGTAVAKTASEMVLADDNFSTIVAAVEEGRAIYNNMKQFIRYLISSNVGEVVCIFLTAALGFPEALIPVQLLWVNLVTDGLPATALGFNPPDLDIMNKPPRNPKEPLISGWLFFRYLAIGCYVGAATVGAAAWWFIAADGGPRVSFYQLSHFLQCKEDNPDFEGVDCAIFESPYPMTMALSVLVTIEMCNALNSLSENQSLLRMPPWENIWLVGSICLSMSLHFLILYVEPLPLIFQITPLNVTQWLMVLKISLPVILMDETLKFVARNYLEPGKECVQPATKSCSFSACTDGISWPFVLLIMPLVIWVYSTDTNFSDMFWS
Text: (§1) Cyclopropanol derivatives have a variety of biological activities including enzyme inhibition and antibacterial and anticancer properties.[47]−[50] However, there have been no published reports on cyclopropanol-containing molecules specifically acting as modulators of RyRs and/or activators of SERCA. To investigate more directly whether the compounds influence the SERCA2 activity, we performed nicotinamide adenine dinucleotide (NADH) fluorescence-coupled ATPase assay according to Radnai et al.[51] In this assay, the change in NADH coenzyme fluorescence reflects the level of the consumption of ATP, which we took as indicator of SERCA2 activity.[51],[52] ATP hydrolysis by SERCA2 is required to pump calcium ions into the SR. We assume that a higher rate of ATP hydrolysis reflects an increase in SERCA2 ATPase activity that leads to a greater pumping of calcium ions into the SR.
(§2) We observed the rate of NADH oxidation, which is coupled to ATP hydrolysis, by measuring changes in NADH intrinsic fluorescence over time after ATP injection into microsomal membranes enriched in SR vesicles isolated from mouse heart ventricles (mouse SR) and HEK-293T cells (HEK-293 ER). The presence of SERCA2 in mouse SR and HEK-293 ER of isolated microsomal vesicles was confirmed by Western blotting (Figures S5 and S6; for details see Experimental Section). The NADH fluorescence decrease was recorded on a multiwell plate reader TECAN Spark 20M (λex = 380 nm, λem = 470 nm). […] Consistent with our previous experiment on HL-1 cells, we observed a strong decrease in NADH fluorescence reflecting an increase in SERCA2a activity in SR microsomes derived from mouse heart ventricles (n = 3–5) in solutions containing the tested compounds compared to the 0.1 v/v% DMSO sample (Figure 6). […] Similar results were obtained in cardiac SR vesicles from the mouse heart. […] This difference may indicate isoform-specific effects of our compound in HEK-293 cells expressing mostly SERCA2b[53] versus mouse SR vesicles containing mostly SERCA2a.[54] In both experiments, we used CDN1163 as a positive control.
Isolation of microsomal membrane vesicles from HEK-293T cells (HEK-293 ER) was performed according to Stewart et al.[61] HEK-293T cells were harvested with Trypsin/EDTA, washed twice with ice-cold PBS containing protease inhibitor cocktail (cOmplete, Roche, Mannheim, Germany), and centrifuged 800 × g for 5 min. The pellet was resuspended in ice-cold lysis buffer (1 mM EDTA, 10 mM HEPES, cOmplete, pH 7.4) and incubated on ice for 20 min. After the cells were homogenized with a tight-fitting Dounce homogenizer (10–20 strokes), an equal volume of restoration buffer (500 mM sucrose, 10 mM HEPES, cOmplete, pH 7.2) was added and the cells were homogenized again (10–20 strokes). The homogenate was centrifuged at 10,000 × g for 20 min at 4 °C. The supernatant was collected and centrifuged again for another 2 h (10^5 × g at 4 °C). Then, the pellet was carefully resuspended in resuspension buffer (250 mM sucrose, 10 mM HEPES, cOmplete, pH 7.2) on ice by pipetting the solution up and down until it was fully dissolved. The obtained solution was diluted to a protein concentration of 15–20 μg/μL with the resuspension buffer; the aliquots were snap frozen in liquid nitrogen and stored at −80 °C until usage.
To determine whether new compounds could increase the SERCA2 activity, HEK-293 microsomes (40–150 μg of total protein) or mouse ventricular microsomes (1–20 μg of total protein) were diluted in 100 μL of the assay buffer used for measurement of SERCA activity (described below) and incubated at room temperature for 5 min prior to the experiments. The measurements of SERCA2 activity were made at 28 °C by using a NADH-coupled ATPase assay as described in Radnai et al. with slight modifications.[51] Briefly, the assay buffer contained 60 mM MOPS, 120 mM KCl, 6 mM MgCl2, 1 mM EGTA, 5 mM NaN3, 0.5 mM phosphoenolpyruvate, and 1.5 mM CaCl2, pH 7.0. […]

[2] = molecular target: T2, SERCA2a (Mus musculus, UniProt O55143); assay: NADH-coupled ATPase assay on mouse heart ventricular SR microsomes (mouse SR); format: biochemical; details: for SERCA2a mouse SR effect class: 10 μM (3 μM for 12b per Figure 6c), microsomal membrane vesicles; for SERCA2a ATPase activity in mouse SR vesicles (in words): 10 μM, vs 0.1 v/v% DMSO
T2 construct: host or cells: HL-1 cells
T2 sequence (O55143 1-998 isoform O55143-2): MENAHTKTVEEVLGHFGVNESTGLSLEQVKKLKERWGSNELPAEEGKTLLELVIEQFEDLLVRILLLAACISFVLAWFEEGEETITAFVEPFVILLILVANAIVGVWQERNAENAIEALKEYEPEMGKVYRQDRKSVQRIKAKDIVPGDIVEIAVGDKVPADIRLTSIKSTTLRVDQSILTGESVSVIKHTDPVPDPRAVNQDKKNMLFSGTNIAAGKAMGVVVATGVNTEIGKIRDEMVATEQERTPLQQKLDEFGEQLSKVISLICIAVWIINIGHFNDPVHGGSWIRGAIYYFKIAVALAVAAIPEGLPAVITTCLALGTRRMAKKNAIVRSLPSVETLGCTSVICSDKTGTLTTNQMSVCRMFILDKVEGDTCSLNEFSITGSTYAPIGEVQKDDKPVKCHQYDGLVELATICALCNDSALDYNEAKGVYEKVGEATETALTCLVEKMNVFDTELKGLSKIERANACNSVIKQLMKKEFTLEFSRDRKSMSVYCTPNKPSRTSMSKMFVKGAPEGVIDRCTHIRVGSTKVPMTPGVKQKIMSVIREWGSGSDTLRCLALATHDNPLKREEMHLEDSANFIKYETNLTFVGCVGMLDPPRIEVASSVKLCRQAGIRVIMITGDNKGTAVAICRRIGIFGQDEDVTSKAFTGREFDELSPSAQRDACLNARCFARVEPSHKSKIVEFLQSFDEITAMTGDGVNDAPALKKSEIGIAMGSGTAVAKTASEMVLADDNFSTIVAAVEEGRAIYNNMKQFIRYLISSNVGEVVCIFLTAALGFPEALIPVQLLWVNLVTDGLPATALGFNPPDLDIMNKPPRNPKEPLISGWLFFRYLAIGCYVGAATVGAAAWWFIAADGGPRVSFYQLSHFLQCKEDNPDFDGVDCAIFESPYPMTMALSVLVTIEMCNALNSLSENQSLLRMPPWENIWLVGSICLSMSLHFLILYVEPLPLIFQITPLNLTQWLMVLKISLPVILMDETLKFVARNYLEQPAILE
Text: as §1, §2
All animal procedures were performed in accordance with Directive 2010/63/EU of the European Parliament and the Council on the protection of animals used in research as well as Animal Welfare Law of the Federal Republic of Germany (Tierschutzgesetz der Bundesrepublik Deutschland, TierSchG). […] All mice were housed with a 12 h light/dark cycle with free access to food and water. Adult C57BL/6N mice of both genders were sedated with isoflurane in a sealed container and quickly euthanized by cervical dislocation. Heart ventricles were taken out instantly, washed with ice-cold PBS plus complete, cut into smaller pieces, and snap frozen in liquid nitrogen straight away.
Lysis buffer thawed on ice (10 mM EDTA, 10 mM HEPES, cOmplete, pH 7.4) was added, and the ventricles were homogenized with a Qiagen Cellruptor for 20 s. On ice, an equal volume of restoration buffer (500 mM sucrose, 10 mM HEPES, cOmplete, pH7.2) was added and briefly mixed. The homogenate was centrifuged at 10^4 × g for 20 min at 4 °C. The supernatant was collected and centrifuged again for another hour (10^5 × g at 4 °C). Then, the pellet was carefully resuspended in resuspension buffer (250 mM sucrose, 10 mM HEPES, cOmplete, pH 7.2) on ice by pipetting the solution up and down until fully dissolved. The obtained solution was diluted to a protein concentration of 5 μg/μL with the resuspension buffer, and the aliquots were snap frozen in liquid nitrogen and then stored at −80 °C until usage.
To determine whether new compounds could increase the SERCA2 activity, HEK-293 microsomes (40–150 μg of total protein) or mouse ventricular microsomes (1–20 μg of total protein) were diluted in 100 μL of the assay buffer used for measurement of SERCA activity (described below) and incubated at room temperature for 5 min prior to the experiments. […]

Row | SERCA2a HEK ER effect class [1] | SERCA2a mouse SR effect class [2] | SERCA2a ATPase activity in mouse SR vesicles (in words) [2] | EC50 ([1]; ATPase activity, value, interval, read-out: SERCA2a HEK ER (EC50)) [µM] | EC50 ([2]; ATPase activity, value, interval) [µM] | Compound | SERCA2 ATPase activity in HEK-293 ER microsomes (in words) [1]
1 | + | + | – | – | – | COc1ccc(SCCCN(CCCCC2(O)CC2)CCCCC2(O)CC2)cc1 [12c, 1,1′-(((3-((4-Methoxyphenyl)thio)propyl)azanediyl)bis(butane-4,1-diyl))bis(cyclopropan-1-ol)] | –
2 | + | ++ | improvement of ATPase activity | – | – | COc1ccc2c(c1)CN(Cc1ccc(C(=O)O)cc1)CCS2 [ARM210, reference compound] | significant activation of SERCA2 ATPase
3 | – | + | – | – | – | COc1ccc2c(c1)CN(CCCCNCCCCC1(O)CC1)CCS2 [11a, 1-(4-((4-(7-Methoxy-2,3-dihydrobenzo[1,4-f]thiazepin-4(5H)-yl)butyl)amino)butyl)cyclopropan-1-ol] | did not evoke a significant increase in ATPase activity; also recorded: could not detect SERCA2 activation
4 | + | ++ | moderate | – | – | COc1ccc2c(c1)CN(CCCCC1(O)CC1)CCS2 [11d, 1-(4-(7-Methoxy-2,3-dihydrobenzo[1,4-f]thiazepin-4(5H)-yl)butyl)cyclopropan-1-ol] | significant activation of SERCA2 ATPase; also recorded: slight
5 | ++ | +++ | – | 0.016 | 0.383 | COc1ccc2c(c1)CN(CCCCN(CCCCC1(O)CC1)CCCCC1(O)CC1)CCS2 [12a, 1,1′-(((4-(7-Methoxy-2,3-dihydrobenzo[1,4-f]thiazepin-4(5H)-yl)butyl)azanediyl)bis(butane-4,1-diyl))bis(cyclopropan-1-ol)] | –
6 | + | +++ | – | – | – | COc1ccc(SCCCNCCCCC2(O)CC2)cc1 [11c, 1-(4-((3-((4-Methoxyphenyl)thio)propyl)amino)butyl)cyclopropan-1-ol] | significant activation of SERCA2 ATPase
7 | – | + | – | – | – | COc1ccc(OCCCNCCCCC2(O)CC2)cc1 [11b, 1-(4-((3-(4-Methoxyphenoxy)propyl)amino)butyl)cyclopropan-1-ol] | did not evoke a significant increase in ATPase activity
